Values after ≈ are worked out from the molar mass of the structure shown.
Assays:
[1] = test system: M. tuberculosis clinical isolates; experiment: microbe, parasite or virus in culture; format: cell-based; settings: Mycobacterium tuberculosis, read-out: MIC against different clinical strains of M. tuberculosis
M. tuberculosis H37Rv = format: cell-based, Mycobacterium tuberculosis; settings: 2×10^9 cells plated on 1.6 µg/mL, 10 times MIC
M. tuberculosis = format: cell-based; settings: for Enhancement of activity against M. tuberculosis in the presence of the partner drug: checkerboard, SB-P17G-A20 with rifampicin

`CN(C)c1cc2[nH]c(C3CCCCC3)nc2cc1NC(=O)c1ccc(OC(F)(F)F)cc1` [SB-P17G-A20] was tested, and the MIC [1] was 0.16 µg/mL (≈ 0.358 µM), the Spontaneous resistant mutants (M. tuberculosis H37Rv) was “no single resistant colony was obtained” and the “Enhancement of activity against M. tuberculosis in the presence of the partner drug” value (M. tuberculosis) was 2–4 fold. For the same compound, the ΣFIC (M. tuberculosis; rifampicin in combination with SB-P17G-A20) was 0.75.

For `CO[C@H]1/C=C/O[C@@]2(C)Oc3c(C)c(O)c4c(O)c(c(/C=N/N5CCN(C)CC5)c(O)c4c3C2=O)NC(=O)/C(C)=C\C=C\[C@H](C)[C@H](O)[C@@H](C)[C@@H](O)[C@@H](C)[C@H](OC(C)=O)[C@@H]1C` [rifampicin, reference compound], the “Enhancement of activity against M. tuberculosis in the presence of the partner drug” value (M. tuberculosis) was 2 fold.
